Results as given in patent publication US12276663B2, “Detection of human leukocyte antigen-A*32:01 in connection with determining drug reaction with eosinophilia and systemic symptoms (DRESS) and methods of treating bacterial infection in a subject with vancomycin-induced DRESS” (priority 2019, dated 2025).
Where “and” joins values, the source holds several entries; their conditions need not be identical. Equal values may be shown once. Entries after “also recorded” stand apart in the source; their conditions may differ. Read-outs that look alike come from different tables or passages of the source.

What was measured:
[1] = system: PBMCs from HLA-A*32:01 positive vancomycin DRESS patients; experiment: IFN-γ release ELISpot assay with four glycopeptide antibiotics (Example 2); format: cell-based, human
[2] = Intradermal skin testing to vancomycin and teicoplanin (Example 2)
From the text: Patients ID 1,3 and 5 also tolerated ingestion challenges with concurrently administered medications.

[3] = cited from earlier work
[4] = system: peripheral blood mononuclear cells from vancomycin DRESS patients; experiment: Overnight IFN-γ ELISpot assay (Example 1); format: cell-based, human
Protocol: (§1) Overnight IFN-γ ELISpot assays were performed in triplicate (Mabtech Kit 3420-2H) as previously described^10-12 using negative (unstimulated) and positive (anti-CD3 Mabtech antibody and/or SEB) controls.

HLA-A*32:01 = HLA-A*32:01 (Homo sapiens, UniProt P04439, A270S/D101S/D185E/E176V/E277Q/F133L/G103R/G107R/G231S/H175R/I121M/I218V/I322F/K168Q/L105A/L300P/L318F/M331R/P208A/P217A/Q94H/R106L/R138Q/S129P/T104I/T323A/T345S/V100E/V321M/V358M)
Protocol: High resolution four digit HLA A B C DP DR DQ typing was performed using either sequence-based typing on 454FLX or Illumina Miseq^7,8 or imputed from SNP data from HumanExome BeadChip and GWAS platforms by Expanded Multi-Ethnic Genotyping Array (MEGA^EX, Illumina), HumanOmni-Quad, HumanOmni5-Quad and Human660W-Quad using SNP2HLA as previously described^9. Imputation for HLA-A*32:01 using SNP2HLA has a reported accuracy of 99.46%9. Associations between DRESS and carriage of HLA-A/B/C/DRB1/DQA1/DQB1/DPB1 alleles at the 4-digit level were assessed by conditional logistic regression to accommodate the matching. Analyses were carried out in R version 3.4.3. (R Core Team (2017)). R: A language and environment for statistical computing. R Foundation for Statistical Computing, Vienna, Austria. R-project.org/).

[5] = Time-to-event analysis of vancomycin-exposed BioVU cohort; format: in vivo, human
Protocol: 137 of the 1,672 HLA-A*32:01 negative individuals were randomly selected to serve as an equal-sized control group. […] ADR latency, defined as the length of time from initiation of vancomycin to symptom onset, as well as any concurrent antimicrobials were documented. Analyses were carried out by Fisher's exact tests, logistic and Cox regression as appropriate in R version 3.4.3.

[6] = Intradermal skin testing (IDT) (Example 1)
[7] = Clinical characterisation of vancomycin DRESS cases (latency); format: in vivo, human
From the text: Retrospective patients were detected using Vanderbilt's BioVU repository, a deidentified electronic health record (EHR) database linked to a DNA biobank in operation since Feb. 7, 2007. Prospective patients with potential DRESS were enrolled to confirm genetic findings from the BioVU analysis using vancomycin-specific immunological studies to support clinical diagnoses. All patients prospectively enrolled from participating centers provided written or electronic consent. Institutional review board (IRB) approvals were in place for the BioVU study and for all sites contributing to the prospective study (Vanderbilt University Medical Center in Nashville (Tennessee, USA), Austin Health, Peter MacCallum Cancer Centre, and Alfred Health in Melbourne (Victoria, Australia), Fiona Stanley Hospital and Royal Perth Hospital in Perth (Western Australia, Australia)). Saliva and blood were routinely collected from prospective patients, processed and stored as repositories of DNA, peripheral blood mononuclear cells (PBMCs) and plasma.
All patients provided written or electronic informed consent. Saliva and blood were collected, processed, and stored as repositories of DNA, peripheral blood mononuclear cells (PBMCs), and plasma.

[8] = system: peripheral blood mononuclear cells; experiment: Overnight IFN-γ ELISpot assay (Example 1); format: cell-based, human; conditions: thirteen controls (HLA-A*32:01 positive donors, non-DRESS ADR patients, non-HLA matched healthy donors)
Protocol: as §1

[9] = Oral / ingestion challenge with concurrently administered medications; conditions: patient 18
[10] = PBMCs from Patient 17 (carries risk allele)

Compound: CCCCCCCCCCNCCN[C@@]1(C)C[C@H](O[C@H]2[C@H](Oc3c4cc5cc3Oc3ccc(cc3Cl)[C@@H](O)[C@@H](NC(=O)[C@@H](CC(C)C)NC)C(=O)N[C@@H](CC(N)=O)C(=O)N[C@H]5C(=O)N[C@H]3C(=O)N[C@H](C(=O)N[C@H](C(=O)O)c5cc(O)c(CNCP(=O)(O)O)c(O)c5-c5cc3ccc5O)[C@H](O)c3ccc(c(Cl)c3)O4)O[C@H](CO)[C@@H](O)[C@@H]2O)O[C@@H](C)[C@H]1O [telavancin]
- cross-reactivity with vancomycin in IFN-γ ELISpot [1]: cross-reactivity
- vancomycin DRESS cases with a negative IFN-γ ELISpot response [1]: 6/9
- vancomycin DRESS cases with a positive IFN-γ ELISpot response [1]: three
- vancomycin DRESS cases with immunological cross-reactivity by ELISpot [1]: 13%
- vancomycin DRESS cases with negative ELISpot / no cross-reactivity [1]: ~67%

Compound: teicoplanin
- delayed intradermal testing ([2]; in vivo): negative
- vancomycin DRESS cases with a negative IFN-γ ELISpot response [1]: 13/15
- vancomycin DRESS cases with immunological cross-reactivity by ELISpot [1]: 13%
- vancomycin DRESS cases with negative ELISpot / no cross-reactivity [1]: approximately 87%
- cross-reactivity with vancomycin in IFN-γ ELISpot ([1]; Patient ID 8 and 15): cross-reactivity
- IFN-γ ELISpot response ([1]; Patient ID 9, 10, and 11): negative IFN-γ ELISpot
- vancomycin DRESS cases with a positive IFN-γ ELISpot response ([1]; positive >50 SFU/million cells): 2/15

Compound: CN[C@H]1C(=O)N[C@@H]2Cc3ccc(cc3)Oc3cc4cc(c3O[C@@H]3O[C@H](C(=O)O)[C@@H](O)[C@H](O)[C@H]3NC(=O)CCCCCCCCC(C)C)Oc3ccc(cc3Cl)[C@@H](O)[C@@H]3NC(=O)[C@H](NC(=O)[C@@H]4NC(=O)[C@@H](NC2=O)c2cc(cc(O)c2Cl)Oc2cc1ccc2O)c1ccc(O)c(c1)-c1c(O[C@H]2O[C@H](CO)[C@@H](O)[C@H](O)[C@@H]2O)cc(O)cc1[C@@H](C(=O)NCCCN(C)C)NC3=O [dalbavancin]
- half-life [3]: 14 days
- vancomycin DRESS cases with negative ELISpot / no cross-reactivity [1]: 100%

Compound: CO[C@H]1/C=C/O[C@@]2(C)Oc3c(C)c(O)c4c(O)c(c(/C=N/N5CCN(C)CC5)c(O)c4c3C2=O)NC(=O)/C(C)=C\C=C\[C@H](C)[C@H](O)[C@@H](C)[C@@H](O)[C@@H](C)[C@H](OC(C)=O)[C@@H]1C [rifampin]
- IFN-γ ELISpot response [4, 10]: positive response
- IFN-γ ELISpot response ([4]; cells from Patient 4 and other healthy donors): did not respond
- IFN-γ ELISpot response ([1]; PBMCs from Patient 13 and other healthy donors): did not respond
- IFN-γ ELISpot response ([1]; PBMCs from Patient ID 2, rifampin at 5 μg/mL): positive response

Compound: CN[C@H](CC(C)C)C(=O)N[C@H]1C(=O)N[C@@H](CC(N)=O)C(=O)N[C@H]2C(=O)N[C@H]3C(=O)N[C@H](C(=O)N[C@H](C(=O)O)c4cc(O)cc(O)c4-c4cc3ccc4O)[C@H](O)c3ccc(c(Cl)c3)Oc3cc2cc(c3O[C@@H]2O[C@H](CO)[C@@H](O)[C@H](O)[C@H]2O[C@H]2C[C@](C)(N)[C@H](O)[C@H](C)O2)Oc2ccc(cc2Cl)[C@H]1O [vancomycin]
- HLA-A*32:01 carriage in vancomycin DRESS cases (HLA-A*32:01; all DRESS cases): 19/23
- HLA-A*32:01 carriage in matched vancomycin tolerant controls (HLA-A*32:01; controls matched to all cases): 0/46
- HLA-A*32:01 carriage in matched controls (HLA-A*32:01; controls matched to immunologically confirmed cases): 0/24
- HLA-A*32:01 carriage in vancomycin IFN-γ ELISpot positive patients (HLA-A*32:01; immunologically confirmed cases): 11/12
- delayed intradermal testing ([2]; Patient ID 9): positive delayed intradermal testing
- delayed intradermal testing ([2]; Patient ID 9, 10, and 11): positive delayed intradermal testing
- intradermal skin test response ([2]; Patient ID 15, approximately 6 months after vancomycin DRESS): positive responses
- development of DRESS or symptoms suggestive of DRESS ([5]; 119 HLA-A*32:01 negative individuals, at least one week of uninterrupted vancomycin): none
- estimated probability of developing DRESS ([5]; HLA-A*32:01 carriers, at four weeks of vancomycin): 19.2% and ~20%
- median time to DRESS symptoms after vancomycin initiation ([5]; vancomycin-exposed BioVU cohort): 18 days
- mean vancomycin trough (DRESS cases, n=116): 17.2 µg/mL
- range of vancomycin trough (DRESS cases, n=116): 3 to 44 µg/mL
- mean vancomycin trough (tolerant controls, n=644): 19.6 µg/mL
- median vancomycin trough (tolerant controls, n=644): 18 µg/mL
- range of vancomycin trough (tolerant controls, n=644): 2 to 86 µg/mL
- intradermal challenge response ([6]; HLA-A*32:01 positive individuals not exposed to vancomycin): negative responses
- immediate IDT response at 20 minutes ([6]; both HLA-A*32:01 positive individuals (patient 18 and control C51)): strong immediate histamine response
- delayed IDT at 24 and 48 hours ([6]; patient 18 (history of DRESS), 0.5, 5 and 50 mg/mL): delayed positive IDT; also recorded: concentration dependent induration of the skin
- median latency period from vancomycin initiation to the first symptoms of DRESS ([7]; 15 patients (Example 2)): 21 days
- mean latency period to first symptoms of DRESS ([7]; 23 DRESS cases (Example 1)): 22.9 days
- median latency period from vancomycin initiation to the first symptoms of DRESS ([7]; 23 DRESS cases (Example 1)): 21 days
- range of latency period to first symptoms of DRESS ([7]; 23 DRESS cases (Example 1)): 14 to 50 days
- IFN-γ ELISpot response [4, 10]: did respond
- IFN-γ ELISpot response ([4]; PBMCs from patient 21 (HLA-A*32:01 negative)): persistently negative
- DRESS cases with a positive IFN-γ ELISpot response ([4]; PBMCs of prospectively enrolled vancomycin DRESS cases, positive >50 SFU/million cells): 12/14
- IFN-γ ELISpot concentration dependence ([4]; patient and control PBMCs, also 5 μg/mL and 50 μg/mL, data not shown): dose-dependent response
- IFN-γ ELISpot at repeat blood draws ([4]; three ELISpot positive patients, time points distant from the initial reaction): repeat positive results
- IFN-γ ELISpot response in controls [8]: none demonstrated a positive vancomycin IFN-γ ELISpot; also recorded: None of the controls released IFN-γ
- IFN-γ ELISpot concentration dependence [1]: dose dependent manner
- vancomycin DRESS cases with a positive IFN-γ ELISpot response [1]: 15 (100%)

Compound: C[C@H]1COc2c(N3CCN(C)CC3)c(F)cc3c(=O)c(C(=O)O)cn1c23 [levofloxacin]
- oral challenge / rechallenge [9]: negative; also recorded: successfully rechallenged
